Literature values as cited in patent US6440956B1, “Bicyclic polyaminoacid metal complexes, their process of preparation and their application in medical imaging” (Guerbet, priority 1999, dated 2002).

Conditions: ratio to commercial gadolinium chelates; from Inorganic Chemistry 36(14) 2992-3000 (1997) and Magn. Reson. Chem. 36, S200-208 (1998)

O=C([O-])CN1CCN(CC(=O)[O-])Cc2cccc(n2)CN(CC(=O)[O-])CC1.[Gd+3] [PCTA]
longitudinal relaxation r1 relative to that of the gadolinium chelates used as contrast agents in magnetic resonance imaging in man: ~2 times
